These results are taken from patent publication US20070293446A1, “Compositions comprising C-13 alkoxyether macrolide compounds and phenylpyrazole compounds” (priority 1996, published 2007).

The format of this series is physicochemical. The source says: The solvent will be used in proportion with the concentration of the compound I and its solubility in this solvent. […] It will be sought to have the lowest possible volume. The vehicle makes up the difference to 100%.

As to `N#Cc1nn(-c2c(Cl)cc(C(F)(F)F)cc2Cl)c(N)c1[S+]([O-])C(F)(F)F` (stereo not shown) [fipronil, 1-[2,6—Cl2-4—CF3 phenyl]-3—CN-4-[SO-CF3]-5—NH2 pyrazole], the Solubility was found to be 4.3 % m/V.
